Source: ChEMBL document CHEMBL1201862, “PubChem BioAssay data set” (2004)
Active and inactive are the calls of the source.

Key:
[1] = biological target: T1, Carboxy-terminal domain RNA polymerase II polypeptide A small phosphatase 1 (Homo sapiens, UniProt Q9GZU7); experiment: CTDSP1 inhibitors, concentration-response, biochemical, absorbance readout, ultra-high-throughput screen actives (AID 540297); type: functional
T1 sequence (Q9GZU7 whole entry): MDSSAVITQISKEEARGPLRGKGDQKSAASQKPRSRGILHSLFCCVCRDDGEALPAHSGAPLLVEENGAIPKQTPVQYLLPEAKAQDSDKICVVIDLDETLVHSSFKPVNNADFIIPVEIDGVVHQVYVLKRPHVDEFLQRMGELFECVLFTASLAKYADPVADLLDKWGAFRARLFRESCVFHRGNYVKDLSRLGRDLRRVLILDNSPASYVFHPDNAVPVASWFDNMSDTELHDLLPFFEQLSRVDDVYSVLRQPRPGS

[2] = NIH3T3 cell viability loss – ATP luminescence, mouse fibroblasts, counter-screen, dose response (AID 2010); type: functional, cell-based;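 also: cells exposed to compound for about 90 hours before reading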
[3] = biological target: Induced myeloid leukemia cell differentiation protein Mcl-1 (Homo sapiens, UniProt Q07820); type: functional
Induced myeloid leukemia cell differentiation protein Mcl-1, sequence (Q07820 whole entry): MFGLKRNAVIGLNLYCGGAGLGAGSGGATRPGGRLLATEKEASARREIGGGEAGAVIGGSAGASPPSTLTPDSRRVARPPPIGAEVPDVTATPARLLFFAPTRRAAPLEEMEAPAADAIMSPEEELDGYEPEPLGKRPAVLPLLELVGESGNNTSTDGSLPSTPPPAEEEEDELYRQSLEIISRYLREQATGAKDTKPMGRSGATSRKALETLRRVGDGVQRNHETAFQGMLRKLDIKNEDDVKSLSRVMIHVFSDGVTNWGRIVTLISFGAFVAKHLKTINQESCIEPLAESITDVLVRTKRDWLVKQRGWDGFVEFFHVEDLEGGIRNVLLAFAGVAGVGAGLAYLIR

Vero = experiment: cells; type: functional; conditions: Chlorocebus sabaeus
[4] = Trypanosoma cruzi growth suppression in host cells – NIH3T3 host cells, beta-gal luminescence, confirmation (AID 2044); type: functional, cell-based;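 also: intracellular parasites grown in NIH/3T3 mouse fibroblasts as host cells; luminescent beta-galactosidase reporter signal from transgenic T. cruzi replicating inside host cells; inhibitors lower the luminescence signal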
[5] = Luminescence Cell-Based Dose Retest to Confirm Inhibitors of Cancer Stem Cells. [Related pubchem assays (depositor defined):AID2717, AID2721]; type: functional; conditions: Homo sapiens
Protein skinhead-1 = biological target: T2, Protein skinhead-1 (Caenorhabditis elegans, UniProt P34707); type: functional
T2 sequence (P34707 whole entry): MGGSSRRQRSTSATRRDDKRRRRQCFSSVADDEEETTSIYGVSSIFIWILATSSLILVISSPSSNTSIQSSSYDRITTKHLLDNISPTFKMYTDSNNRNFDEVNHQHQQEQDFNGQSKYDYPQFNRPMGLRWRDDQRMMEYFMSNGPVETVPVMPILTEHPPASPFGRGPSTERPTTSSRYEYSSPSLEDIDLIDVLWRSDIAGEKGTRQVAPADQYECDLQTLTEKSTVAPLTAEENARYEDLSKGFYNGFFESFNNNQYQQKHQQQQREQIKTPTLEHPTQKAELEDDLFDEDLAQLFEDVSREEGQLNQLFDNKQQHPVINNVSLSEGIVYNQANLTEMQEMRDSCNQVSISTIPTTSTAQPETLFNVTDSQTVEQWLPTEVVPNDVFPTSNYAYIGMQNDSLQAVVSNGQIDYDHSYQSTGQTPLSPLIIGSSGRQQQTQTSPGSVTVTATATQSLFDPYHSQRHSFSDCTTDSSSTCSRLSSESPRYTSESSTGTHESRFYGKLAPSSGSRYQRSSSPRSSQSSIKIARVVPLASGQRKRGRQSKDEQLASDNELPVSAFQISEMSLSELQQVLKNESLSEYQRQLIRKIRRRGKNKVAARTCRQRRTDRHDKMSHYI

[6] = biological target: T3, Heat shock factor protein 1 (Mus musculus, UniProt P38532); experiment: enhancement of HSF1-driven luciferase signal – cell-based, NIH3T3, luminescence, dose retest, confirmation (AID 435004); type: functional;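 also: stress induced by proteasome inhibitor MG132 added 30 min after compound; luciferase reporter driven by HSF1 response element in NIH3T3 cells; actives raise luminescence as potentiators of the MG132 stress response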
T3 sequence (P38532 whole entry): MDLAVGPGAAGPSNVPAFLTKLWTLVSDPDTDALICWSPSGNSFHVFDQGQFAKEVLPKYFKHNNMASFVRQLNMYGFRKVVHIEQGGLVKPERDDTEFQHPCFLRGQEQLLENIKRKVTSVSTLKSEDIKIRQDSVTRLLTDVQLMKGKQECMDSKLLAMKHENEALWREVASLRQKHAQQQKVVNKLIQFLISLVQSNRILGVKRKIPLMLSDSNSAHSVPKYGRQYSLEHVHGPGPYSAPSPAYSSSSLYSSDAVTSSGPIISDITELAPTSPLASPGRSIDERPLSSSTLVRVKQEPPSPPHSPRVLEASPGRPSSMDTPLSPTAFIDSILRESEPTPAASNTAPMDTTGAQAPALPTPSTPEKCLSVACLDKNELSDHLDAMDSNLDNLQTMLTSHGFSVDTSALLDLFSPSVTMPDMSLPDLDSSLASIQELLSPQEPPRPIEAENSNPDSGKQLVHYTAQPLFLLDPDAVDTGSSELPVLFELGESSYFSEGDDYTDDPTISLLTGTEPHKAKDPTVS

[7] = viability loss in THP-1 monocytes – THP-1 cells, cytotoxicity control for Vif-APOBEC3G degradation inhibitor project, dose response (AID 1117359); type: functional; conditions: THP-1
Fatty acid synthase [8] = biological target: T4, Fatty acid synthase (Homo sapiens, UniProt P49327); experiment: inhibition of human FAS-TE enzyme activity – biochemical, endpoint fluorescence intensity, uHTS hits, dose response (AID 624327); type: functional;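 also: fluorescence from hydrolysis of an O-methyl fluorescein acyl ester substrate by the enzyme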
T4 sequence (P49327 whole entry): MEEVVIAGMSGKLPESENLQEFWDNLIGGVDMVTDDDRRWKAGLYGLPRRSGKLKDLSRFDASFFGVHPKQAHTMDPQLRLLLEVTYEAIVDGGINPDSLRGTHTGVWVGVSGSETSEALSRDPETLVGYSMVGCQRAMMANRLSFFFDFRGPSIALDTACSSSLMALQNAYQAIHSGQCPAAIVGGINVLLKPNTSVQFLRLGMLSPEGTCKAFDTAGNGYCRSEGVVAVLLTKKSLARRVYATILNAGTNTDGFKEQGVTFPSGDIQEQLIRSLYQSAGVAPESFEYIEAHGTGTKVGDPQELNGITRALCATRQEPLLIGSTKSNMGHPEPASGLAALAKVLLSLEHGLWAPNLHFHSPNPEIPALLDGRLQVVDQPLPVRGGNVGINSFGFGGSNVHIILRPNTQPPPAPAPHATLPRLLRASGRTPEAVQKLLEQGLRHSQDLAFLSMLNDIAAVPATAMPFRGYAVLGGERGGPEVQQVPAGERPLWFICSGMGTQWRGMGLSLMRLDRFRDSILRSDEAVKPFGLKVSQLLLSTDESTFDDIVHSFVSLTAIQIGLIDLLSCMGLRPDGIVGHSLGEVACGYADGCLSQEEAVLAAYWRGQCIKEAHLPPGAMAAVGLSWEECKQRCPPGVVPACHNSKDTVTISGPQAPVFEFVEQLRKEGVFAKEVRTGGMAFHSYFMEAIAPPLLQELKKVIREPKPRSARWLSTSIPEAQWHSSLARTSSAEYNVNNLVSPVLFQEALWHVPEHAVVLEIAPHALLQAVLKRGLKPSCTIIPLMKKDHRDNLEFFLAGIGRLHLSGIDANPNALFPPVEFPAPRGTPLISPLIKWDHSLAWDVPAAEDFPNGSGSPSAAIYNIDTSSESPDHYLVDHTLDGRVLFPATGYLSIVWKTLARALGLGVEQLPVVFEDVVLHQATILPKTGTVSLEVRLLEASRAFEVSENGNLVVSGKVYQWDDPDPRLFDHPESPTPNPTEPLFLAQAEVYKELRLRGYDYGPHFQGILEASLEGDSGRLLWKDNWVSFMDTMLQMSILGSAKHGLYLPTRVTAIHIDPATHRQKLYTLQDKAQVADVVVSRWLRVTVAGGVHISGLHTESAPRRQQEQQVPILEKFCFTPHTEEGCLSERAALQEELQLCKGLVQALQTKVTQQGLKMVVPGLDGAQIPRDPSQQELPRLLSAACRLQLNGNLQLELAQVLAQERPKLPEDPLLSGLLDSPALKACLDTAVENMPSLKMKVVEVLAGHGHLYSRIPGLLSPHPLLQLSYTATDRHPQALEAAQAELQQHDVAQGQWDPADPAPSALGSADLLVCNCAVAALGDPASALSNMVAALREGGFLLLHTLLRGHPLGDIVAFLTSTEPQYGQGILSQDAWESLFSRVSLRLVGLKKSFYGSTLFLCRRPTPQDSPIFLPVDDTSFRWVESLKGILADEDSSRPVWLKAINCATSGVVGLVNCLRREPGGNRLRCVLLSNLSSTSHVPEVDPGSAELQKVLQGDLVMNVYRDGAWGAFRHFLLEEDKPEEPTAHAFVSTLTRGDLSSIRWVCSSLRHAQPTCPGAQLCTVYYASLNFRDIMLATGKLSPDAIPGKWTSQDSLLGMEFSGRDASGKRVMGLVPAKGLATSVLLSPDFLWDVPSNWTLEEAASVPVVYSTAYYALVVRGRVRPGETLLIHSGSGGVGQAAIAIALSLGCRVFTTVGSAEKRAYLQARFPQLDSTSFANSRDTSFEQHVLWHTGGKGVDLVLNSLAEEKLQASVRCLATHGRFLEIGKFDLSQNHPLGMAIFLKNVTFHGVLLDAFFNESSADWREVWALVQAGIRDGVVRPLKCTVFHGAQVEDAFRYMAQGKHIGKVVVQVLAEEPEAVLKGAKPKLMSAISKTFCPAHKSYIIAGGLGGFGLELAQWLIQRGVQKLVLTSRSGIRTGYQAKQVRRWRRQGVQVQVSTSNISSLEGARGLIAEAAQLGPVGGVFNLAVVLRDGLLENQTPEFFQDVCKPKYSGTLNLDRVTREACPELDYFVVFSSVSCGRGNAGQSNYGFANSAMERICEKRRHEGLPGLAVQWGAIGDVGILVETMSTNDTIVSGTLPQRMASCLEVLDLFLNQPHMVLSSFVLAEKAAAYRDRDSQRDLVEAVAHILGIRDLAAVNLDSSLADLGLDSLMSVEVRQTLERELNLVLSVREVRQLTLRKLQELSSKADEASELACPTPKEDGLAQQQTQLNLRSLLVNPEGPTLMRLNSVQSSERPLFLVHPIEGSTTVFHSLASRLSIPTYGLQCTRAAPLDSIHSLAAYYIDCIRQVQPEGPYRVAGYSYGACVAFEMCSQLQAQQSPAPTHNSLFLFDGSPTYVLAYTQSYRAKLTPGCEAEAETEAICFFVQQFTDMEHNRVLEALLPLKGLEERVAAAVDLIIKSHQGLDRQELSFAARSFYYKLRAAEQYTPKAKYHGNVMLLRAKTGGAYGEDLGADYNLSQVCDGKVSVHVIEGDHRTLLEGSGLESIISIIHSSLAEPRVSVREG

Fatty acid synthase [9] = biological target: T4, Fatty acid synthase; experiment: inhibition of human FAS-TE enzyme activity – biochemical, kinetic fluorescence intensity, dose response (AID 624326); type: functional;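 also: rate of fluorescence rise from hydrolysis of a fluorogenic O-methyl fluorescein ester substrate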
Streptococcus = experiment: GAS UMAA2166 growth inhibition – luminescence, BacTiterGlo, counter-screen for streptokinase expression inhibitor project, dose response (AID 1915); type: functional, organism-based;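 also: potency for reduction of bacterial viability or growth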
[10] = system: Streptococcus sp. 'group A'; experiment: Streptococcus pyogenes SK(-)GAS viability under kanamycin – luminescence, BacTiterGlo, confirmation, counter-screen for streptokinase expression inhibitor project, dose response (AID 1900); type: functional, organism-based
Streptokinase A = biological target: T5, Streptokinase A (Streptococcus pyogenes serotype M1, UniProt P10520); experiment: viability-normalized secreted streptokinase activity reduction – plasminogen activation absorbance, OD405, dose response (AID 1914); type: functional, Streptococcus pyogenes M1 GAS;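 also: secreted streptokinase activity via plasminogen activation per viability signal from cell pellet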
T5 sequence (P10520 whole entry): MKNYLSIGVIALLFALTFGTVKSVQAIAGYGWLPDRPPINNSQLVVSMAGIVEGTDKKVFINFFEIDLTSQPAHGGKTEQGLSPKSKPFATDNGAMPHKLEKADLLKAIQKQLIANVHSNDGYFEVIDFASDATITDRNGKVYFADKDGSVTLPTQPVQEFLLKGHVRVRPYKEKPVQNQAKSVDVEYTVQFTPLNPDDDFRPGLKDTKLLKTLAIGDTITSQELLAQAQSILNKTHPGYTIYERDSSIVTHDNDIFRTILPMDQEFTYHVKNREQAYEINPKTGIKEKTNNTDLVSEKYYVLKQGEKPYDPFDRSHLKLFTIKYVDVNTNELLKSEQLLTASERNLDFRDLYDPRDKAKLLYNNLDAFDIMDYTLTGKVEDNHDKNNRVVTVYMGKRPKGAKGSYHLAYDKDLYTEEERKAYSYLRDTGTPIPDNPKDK

Cytochrome P450 1A2 = biological target: T6, Cytochrome P450 1A2 (Homo sapiens, UniProt P05177);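 also: PubChem cytochrome P450 panel assay, CYP1A2 panel member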
T6 sequence (P05177 whole entry): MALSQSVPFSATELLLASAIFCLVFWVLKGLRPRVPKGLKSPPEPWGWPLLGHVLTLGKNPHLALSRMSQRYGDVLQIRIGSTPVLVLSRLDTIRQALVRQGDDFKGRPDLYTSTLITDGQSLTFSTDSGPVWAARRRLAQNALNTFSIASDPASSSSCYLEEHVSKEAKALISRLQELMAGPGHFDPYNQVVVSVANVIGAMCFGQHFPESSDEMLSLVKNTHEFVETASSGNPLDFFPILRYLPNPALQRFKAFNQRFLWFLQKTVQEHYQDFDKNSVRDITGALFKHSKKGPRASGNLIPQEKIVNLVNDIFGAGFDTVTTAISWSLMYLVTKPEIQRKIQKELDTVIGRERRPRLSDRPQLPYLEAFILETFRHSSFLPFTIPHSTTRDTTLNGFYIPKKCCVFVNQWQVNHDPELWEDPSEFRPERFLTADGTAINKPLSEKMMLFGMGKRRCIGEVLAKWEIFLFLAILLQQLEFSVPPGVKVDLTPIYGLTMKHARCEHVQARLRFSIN

Cytochrome P450 2C9 = Cytochrome P450 2C9 (Homo sapiens, UniProt P11712)
Cytochrome P450 2C9, sequence (P11712 whole entry): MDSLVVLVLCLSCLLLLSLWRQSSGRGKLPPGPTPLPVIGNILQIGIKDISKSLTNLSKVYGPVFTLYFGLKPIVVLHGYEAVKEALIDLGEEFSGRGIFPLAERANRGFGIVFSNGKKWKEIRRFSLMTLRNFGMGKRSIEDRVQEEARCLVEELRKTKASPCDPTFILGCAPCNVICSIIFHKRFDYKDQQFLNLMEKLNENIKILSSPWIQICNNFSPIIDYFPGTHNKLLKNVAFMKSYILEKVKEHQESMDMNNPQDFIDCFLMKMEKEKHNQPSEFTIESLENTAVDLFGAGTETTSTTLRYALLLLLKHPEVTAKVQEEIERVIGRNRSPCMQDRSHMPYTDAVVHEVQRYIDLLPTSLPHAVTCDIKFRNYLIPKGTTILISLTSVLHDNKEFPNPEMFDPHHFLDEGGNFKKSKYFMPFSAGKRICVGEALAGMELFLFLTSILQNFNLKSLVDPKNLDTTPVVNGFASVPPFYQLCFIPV

Cytochrome P450 3A4 = Cytochrome P450 3A4 (Homo sapiens, UniProt P08684);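 also: CYP3A4 tested as one member of a cytochrome P450 panel screen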
Cytochrome P450 3A4, sequence (P08684 whole entry): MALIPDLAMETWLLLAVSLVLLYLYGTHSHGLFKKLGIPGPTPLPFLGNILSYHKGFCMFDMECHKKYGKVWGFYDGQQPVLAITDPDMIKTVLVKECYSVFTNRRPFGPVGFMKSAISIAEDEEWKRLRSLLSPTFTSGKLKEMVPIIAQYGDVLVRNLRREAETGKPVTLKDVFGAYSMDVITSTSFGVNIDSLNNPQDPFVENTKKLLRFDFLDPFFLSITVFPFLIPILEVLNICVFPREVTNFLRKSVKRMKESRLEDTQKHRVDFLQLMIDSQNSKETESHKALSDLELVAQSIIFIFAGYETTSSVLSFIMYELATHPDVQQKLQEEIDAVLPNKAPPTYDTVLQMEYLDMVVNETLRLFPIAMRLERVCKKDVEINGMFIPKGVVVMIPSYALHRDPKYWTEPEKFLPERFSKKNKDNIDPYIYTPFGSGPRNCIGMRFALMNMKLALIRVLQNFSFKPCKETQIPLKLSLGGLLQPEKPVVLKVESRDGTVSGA

[11] = viability of PTEN-deleted HCT116 cells – cell-based, HCT116 PTEN knockout, dose response (AID 1047); type: functional;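 also: HCT116 colon tumor cells with PTEN knocked out; cells exposed to compound for 60 hours before readout; potency for loss of cell viability measured by luminescence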
[12] = viability of uninfected HEp-2 cells – cell-based, HTS, cytotoxicity control for RSV inhibitor project, dose response (AID 2410); type: functional; conditions: human respiratory syncytial virus
[13] = viability of HCT116 lacking mutant beta-catenin – cell-based, human colon tumor, dose response (AID 1045); type: functional;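 also: HCT116 colon tumor cells with beta catenin knocked out; cells exposed to compound for 60 hours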
[14] = biological target: T7, Corticotropin-releasing factor receptor 2/Corticotropin-releasing factor-binding protein (Homo sapiens, UniProt P24387+Q13324); experiment: Dose Response confirmation of uHTS hits for small molecule antagonists of the CRF-binding protein and CRF-R2 receptor complex.; type: functional; conditions: read-out: IC50_Mean
T7 sequence (Q13324 whole entry): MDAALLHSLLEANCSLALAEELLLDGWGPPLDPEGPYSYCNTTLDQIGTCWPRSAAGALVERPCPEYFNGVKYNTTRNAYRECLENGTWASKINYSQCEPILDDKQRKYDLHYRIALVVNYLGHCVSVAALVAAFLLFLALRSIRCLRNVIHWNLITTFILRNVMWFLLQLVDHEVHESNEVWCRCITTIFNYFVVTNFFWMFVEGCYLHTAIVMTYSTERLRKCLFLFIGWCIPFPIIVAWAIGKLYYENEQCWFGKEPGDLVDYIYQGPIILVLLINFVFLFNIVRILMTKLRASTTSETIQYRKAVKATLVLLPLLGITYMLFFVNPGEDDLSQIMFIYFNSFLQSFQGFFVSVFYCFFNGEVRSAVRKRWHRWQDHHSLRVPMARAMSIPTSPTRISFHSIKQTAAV
T7 sequence (P24387 whole entry): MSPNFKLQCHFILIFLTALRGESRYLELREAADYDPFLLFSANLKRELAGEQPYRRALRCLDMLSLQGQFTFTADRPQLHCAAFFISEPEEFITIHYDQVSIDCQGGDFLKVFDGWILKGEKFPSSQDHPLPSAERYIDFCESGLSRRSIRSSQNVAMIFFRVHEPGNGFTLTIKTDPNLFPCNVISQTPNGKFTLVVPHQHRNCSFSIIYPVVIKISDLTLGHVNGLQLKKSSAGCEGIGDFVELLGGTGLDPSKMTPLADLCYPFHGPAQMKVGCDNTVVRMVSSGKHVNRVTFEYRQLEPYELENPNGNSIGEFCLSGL

[15] = biological target: T7, Corticotropin-releasing factor receptor 2/Corticotropin-releasing factor-binding protein; experiment: activators of CRF receptor 2 with binding protein – uHTS hits, confirmation (AID 602473); type: functional; conditions: read-out: EC50_Mean

Cc1ccc2[nH]c(/C(C#N)=C\c3ccc(Oc4ccc(C(F)(F)F)cc4[N+](=O)[O-])cc3)nc2c1
IC50 [1]: 2.42 µM (active)

CCC1CSC(Nc2ccc(C(=O)/C=C/c3cccc(C)c3)cc2)=N1 (stereo unspecified)
EC50 [2]: > 60 µM (not active) | IC50 [3]: 1.66 µM (active) | CC50 (Vero): > 25 µM (active) | EC50 [4]: 3.06 µM (active) | AC50 [5]: 5.77 µM (active) | IC50 (Protein skinhead-1): > 100 µM (inactive) | EC50 [6]: 12.9 µM (active)

CCN(CC)P(=S)(c1c(C)nc2ccccn12)c1c(C)nc2ccccn12
CC50 [7]: 13.9 µM (active)

COc1ccc2cc3cc(C(=O)N4CCCCCC4)oc3nc2c1
IC50 (Fatty acid synthase [8]): 3.92 µM (active) | IC50 (Fatty acid synthase [9]): 3.37 µM (active)

CC(C)(C)c1ccc2c(c1)OC(C(=O)N/N=C/c1ccc([N+](=O)[O-])o1)CO2 (stereo unspecified)
EC50 [2]: > 60 µM (not active) | CC50 (Vero): > 25 µM (active) | EC50 (Streptococcus): 10.3 µM (active) | EC50 [4]: 0.102 µM (active) | EC50 [10]: 5.27 µM (active) | IC50 [1]: 5.41 µM (active) | EC50 (Streptokinase A): 5.82 µM (active)

O=C(C1CCN(S(=O)(=O)c2c(Cl)cccc2Cl)CC1)N1CCCC1
IC50 (Protein skinhead-1): > 100 µM (inactive)

COc1ccc(C2Nc3ccccc3C(=O)N2c2ccc(Cl)cc2)cc1Cn1cc([N+](=O)[O-])cn1 (stereo unspecified)
CC50 [7]: > 40 µM (active)

CCc1ccc(N(C2C=CS(=O)(=O)C2)S(=O)(=O)c2ccc(C)cc2)cc1 (stereo unspecified)
CC50 [7]: > 40 µM (active)

O=c1c2ccccc2sc2ccccc12
IC50 (Protein skinhead-1): 59.3 µM (inactive)

CCOC(=O)c1cc2c(=O)n3ccccc3nc2n(Cc2ccco2)/c1=N/C(=O)c1ccc(OC)cc1
IC50 (Fatty acid synthase [8]): 14.6 µM (active) | IC50 (Fatty acid synthase [9]): 80 µM (inactive)

Cc1[nH]n(-c2ccccc2)c(=O)c1CCOC(=O)c1ccc(C(F)(F)F)cc1
AC50 (Cytochrome P450 1A2): 15.8 µM (inconclusive) | AC50 (Cytochrome P450 2C9): inconclusive

O=C(Oc1ccc(C(=S)N2CCOCC2)cc1Br)c1cc(Cl)ccc1Cl
AC50 (Cytochrome P450 2C9): inconclusive | AC50 (Cytochrome P450 3A4): 12.6 µM (inconclusive) | EC50 [6]: 68.8 µM (active)

O=C(/C=C/c1cccc([N+](=O)[O-])c1)N1CCN(c2ccccc2F)CC1
IC50 (Fatty acid synthase [8]): 11.6 µM (active) | IC50 (Fatty acid synthase [9]): 6.52 µM (active)

Cc1c(Cl)cnc(NC(=O)COC(=O)c2ccc(S(=O)(=O)NCc3ccco3)cc2)c1Cl
IC50 [1]: 8.67 µM (active)

CCCCOc1ccc(-c2c(C#N)c(N)nc(SCC(N)=O)c2C#N)cc1
EC50 [11]: 15.8 µM (active) | EC50 (Streptococcus): > 150 µM (not active) | IC50 (Fatty acid synthase [8]): 1.12 µM (active) | CC50 [12]: 19.9 µM (active) | EC50 [13]: 21.2 µM (active) | EC50 [10]: 6.77 µM (active) | IC50 (Fatty acid synthase [9]): 0.644 µM (active) | EC50 (Streptokinase A): > 150 µM (not active)

COc1ccc(Cc2nc(-c3ccc(Cl)cc3)no2)cc1
IC50 [14]: > 47.1 µM (inactive) | IC50 (Protein skinhead-1): > 100 µM (inactive) | EC50 [15]: > 53 µM (inactive)

COc1ccc(CC(=O)N2CCCC(C)C2)cc1 (stereo unspecified)
IC50 (Protein skinhead-1): > 100 µM (inactive)

O=C(O)/C(=C/c1ccco1)NC(=O)c1ccccc1
IC50 [1]: 6.04 µM (active)

COc1ccc(N(C(=O)CNC(=O)c2ccco2)C(C(=O)NC2CCCCC2)c2cccnc2)cc1 (stereo unspecified)
IC50 (Protein skinhead-1): > 100 µM (inactive)
